# Data as given in paper PMC7764991, “Chronic Plasma Exposure to Kinase Inhibitors in Patients with Oncogene-Addicted Non-Small Cell Lung Cancer” (Cancers, 2020).
# Key:
# [1] = Table S2; ref supplementary refs 9-18, per drug; cited from earlier work
# [2] = cited from earlier work; for Proposed target for TDM, Cmin: Table S1, plasma trough level, ref supplementary refs 1-11, per drug; for Target value of residual plasma concentration defining 'optimal concentration': recommended for TDM
# [3] = Residual plasma concentration of kinase inhibitors by UPLC-MS/MS in NSCLC patients, classed optimal or suboptimal
# Method: Patients with advanced NSCLC harboring oncogenic drivers, such as an EGFR-mutation, BRAF^V600E-mutation, ALK-fusion, or ROS1-fusion, treated with KI therapy for at least three months were eligible. […] KI plasma concentrations were evaluated in blood samples collected during therapy, and at the time of clinical response or relapse. Chronic plasma exposure was defined as at least three months of KI therapy. Clinical and pathological data were extracted from electronic medical records. Radiological assessments were performed every 8 or 12 weeks per Response Evaluation Criteria in Solid Tumors (RECIST) v1.1 and per the treating physician’s discretion.
# Residual plasma concentrations of drugs were measured in blood samples using ultra-performance liquid chromatography coupled with tandem mass spectrometry validated methods. A residual estimate based on pharmacokinetic and population pharmacokinetic analysis parameters (Table S2) was made for samples not collected at the time of the residual sampling.
# Precise measurement of trough concentrations is challenging in routine practice, due to the constraints of the logistics of blood collection at a precise time and the fact that the timing of administration varies from patient to patient. We defined three situations according to the dosing time with respect to the last dose: Optimal, evaluable, and non-interpretable.
# • Optimal: The optimal concentration corresponds to the true residual plasma concentration at a steady state, in the blood collection performed immediately before the next administration. • Evaluable: The residual plasma concentration is estimated by an extrapolation method from known pharmacokinetic parameters (distribution volume, half-life, clearance) and from data obtained in population pharmacokinetic models. This estimate of standard trough concentration (Cmin, std) is only possible when blood samples were collected at steady state or during the terminal elimination phase of the drug, since in this phase, the elimination rate is linear. • - C (min, std) = C(t) * 0.5 ^ (Delta (t)/t1/2) • - C (min, std) = C(t) * exp (k(e) x Delta (t))
# • 3. Not interpretable: Extrapolation is not feasible for samples taken during the plasma peak period.
# [4] = cited from earlier work
# [5] = studies of KI concentrations for other cancers; cited from earlier work
# [6] = set-up: method as in PMID 22038662; conditions: hepatocellular carcinoma patients, plasma measured every 15 days; cited from earlier work
# [7] = samples after at least three months of KI, % of the optimal group (n = 25)
# [8] = samples after at least three months of KI, % of the suboptimal group (n = 26)
SMILES,"Samples with optimal concentration [3, 7]","Samples with suboptimal concentration [3, 8]",Bioavailability [1] [%],Distribution volume [1] [L],Hepatic elimination [1] [%],Metabolic pathway [1],Tmax [1] [h],"Proposed target for TDM, Cmin [2] [ng/mL]",Target value of residual plasma concentration defining 'optimal concentration' [2] [ng/mL],Interaction with proton pump inhibitors [4],Half-life [1] [h],"Samples with optimal concentration ([3]; human, in vivo)","Samples with suboptimal concentration ([3]; human, in vivo)",Effect of cigarette smoke on plasmatic exposure ([4]; cigarette smoke induces CYP1A1),Suboptimal concentration rate [5] [%],Exposure after three months of treatment compared with one month [6]
"C#Cc1cccc(Nc2ncnc3cc(OCCOC)c(OCCOC)cc23)c1 [Erlotinib, erlotinib]",,,59,232,90,,,≥ 500,> 500,decreasing their bioavailability and the plasmatic exposure,36.2,7 (28%) No. (%),6 (23%) No. (%),significantly decreases,11,
"COc1cc2ncnc(Nc3ccc(F)c(Cl)c3)c2cc1OCCCN1CCOCC1 [Gefitinib, gefitinib]",,,59,,,,3 to 7,≥ 200,> 200,,41,8 (32%) No. (%),3 (11.5%) No. (%),,,
"C=CC(=O)Nc1cc(Nc2nccc(-c3cn(C)c4ccccc34)n2)c(OC)cc1N(C)CCN(C)C [Osimertinib, osimertinib]",,,70,,,,6,≥ 166,> 166,,44,4 (16%) No. (%),6 (23%) No. (%),,,
"CC(=O)Nc1cccc(-n2c(=O)n(C3CC3)c(=O)c3c(Nc4ccc(I)cc4F)n(C)c(=O)c(C)c32)c1 [Trametinib, trametinib]",,,,,80,Deacetylation,,≥ 10.6,> 10.6,not relevant,127,2 (8%) No. (%),3 (11.5%) No. (%),,,
CNC(=O)c1cc(Oc2ccc(NC(=O)Nc3ccc(Cl)c(C(F)(F)F)c3)cc2)ccn1 [sorafenib],,,,,,,,,,,,,,,,lower than after one month of treatment
CCN(CC)CCNC(=O)c1c(C)[nH]c(/C=C2\C(=O)Nc3ccc(F)cc32)c1C [sunitinib],,,,,,,,,,,,,,,49,

# Now from value to compound, other results behind:
"Samples with optimal concentration [3, 7]","Samples with suboptimal concentration [3, 8]",SMILES,Bioavailability [1] [%],Distribution volume [1] [L],Hepatic elimination [1] [%],Metabolic pathway [1],Tmax [1] [h],"Proposed target for TDM, Cmin [2] [ng/mL]",Target value of residual plasma concentration defining 'optimal concentration' [2] [ng/mL],Interaction with proton pump inhibitors [4],Half-life [1] [h],"Samples with optimal concentration ([3]; human, in vivo)","Samples with suboptimal concentration ([3]; human, in vivo)",Effect of cigarette smoke on plasmatic exposure ([4]; cigarette smoke induces CYP1A1),Suboptimal concentration rate [5] [%],Exposure after three months of treatment compared with one month [6]
2 (8%) No. (%),5 (19.5%) No. (%),"C[C@@H](Oc1cc(-c2cnn(C3CCNCC3)c2)cnc1N)c1c(Cl)ccc(F)c1Cl [Crizotinib, crizotinib]",43,1772,63,CYP3A4,4 to 6,≥ 235,> 235,not relevant,,,,,,
2 (8%) No. (%),3 (11.5%) No. (%),"CC(C)(C)c1nc(-c2cccc(NS(=O)(=O)c3c(F)cccc3F)c2F)c(-c2ccnc(N)n2)s1 [Dabrafenib, dabrafenib]",,46,73,"CYP2C8, 3A4",,≥ 96.1,> 96.1,not relevant,8,,,,,
